For one assay, the target named is T1, BACE1 (Homo sapiens, UniProt P56817).
T1 construct: Human HEK293 cells which are stably transfected with a vector expressing a cDNA of the human APP wt gene (APP695); endogenous in cells; host or cells: HEK293 stably transfected with human APP695 wt
Put plainly: Cellular Aβ-lowering assay (Aβ40 ELISA). It counts as cell-based. Particulars: HEK293 cells stably expressing human APP695; Aβ40 in culture supernatant; read-out: BACE1 cell act. Aβ40 IC50. On the procedure: Cellular Aβ-Lowering Assay:
Human HEK293 cells which are stably transfected with a vector expressing a cDNA of the human APP wt gene (APP695) were used to assess the potency of the compounds in a cellular assay. The cells were seeded in 96-well microtiter plates in cell culture medium (Iscove, plus 10% (v/v) fetal bovine serum, glutamine, penicillin/streptomycin) to about 80% confluence and the compounds were added at a 10× concentration in 1/10 volume of medium without FCS containing 8% DMSO (final concentration of DMSO was kept at 0.8% v/v). After 18-20 hrs incubation at 37° C. and 5% CO2 in a humidified incubator the culture supernatant was harvested for the determination of Aβ40 concentrations. […] Subsequently the wells of the microtiter plate were washed extensively with Tris-buffered saline containing 0.05% Tween 20 and the assay was developed with tetramethylbenzidine/H2O2 in citric acid buffer. After stopping the reaction with one volume 1 NH2SO4 the reaction was measured in an ELISA reader at 450 nm wavelength. The concentrations of Aβ in the culture supernatants were calculated from a standard curve obtained with known amounts of pure Aβ peptide.
For orientation: An ELISA detects its analyte on a solid surface through an enzyme-linked reagent.

In a further assay the target is T2, BACE2 (Rattus norvegicus, UniProt Q6IE75).
T2 construct: endogenous cellular BACE2 in the Ins1e rat cell line; endogenous in cells; host or cells: INS-TMEM27 (INS1e-derived rat cell line with TetOn-inducible full-length hTMEM27)
T2 sequence (Q6IE75 63-514): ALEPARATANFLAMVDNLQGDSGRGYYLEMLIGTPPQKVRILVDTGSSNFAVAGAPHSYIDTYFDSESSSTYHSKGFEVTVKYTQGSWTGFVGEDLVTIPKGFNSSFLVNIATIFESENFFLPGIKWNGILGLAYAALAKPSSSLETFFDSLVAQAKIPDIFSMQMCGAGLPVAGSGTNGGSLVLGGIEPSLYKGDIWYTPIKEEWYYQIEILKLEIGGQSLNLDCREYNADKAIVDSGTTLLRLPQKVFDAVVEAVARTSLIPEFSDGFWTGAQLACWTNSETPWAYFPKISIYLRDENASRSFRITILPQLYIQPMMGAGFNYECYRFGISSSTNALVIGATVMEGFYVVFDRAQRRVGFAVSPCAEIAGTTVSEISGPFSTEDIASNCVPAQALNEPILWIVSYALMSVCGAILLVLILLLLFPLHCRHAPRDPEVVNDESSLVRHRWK
Put plainly: Assay for BACE inhibition by measuring cellular TMEM27 cleavage. It counts as cell-based. Conditions: INS-TMEM27 cells (INS1e-derived); shed TMEM27 by ELISA; read-out: BACE2 cell act. IC50. From the text: Assay for BACE Inhibition by Measuring Cellular TMEM27 Cleavage:
The assay uses the principle of inhibition of human TMEM27 cleavage by endogenous cellular BACE2 in the Ins1e rat cell line and shedding from the cell surface into the culture medium, followed by detection in an ELISA assay. Inhibition of BACE2 prevents the cleavage and shedding in a dose-dependent manner.
The stable cell line “INS-TMEM27” represents an INS1e-derived cell line with inducible expression (using the TetOn system) of full-length hTMEM27 in a doxycycline-dependent manner. The cells are cultured throughout the experiment in RPMI1640+Glutamax (Invitrogen) Penicillin/Streptomycin, 10% Fetal bovine serum, […] pyruvate, […] beta-mercatptoethanol, 100 micrograms/ml G418 and 100 microgram/ml hygromycin and are grown inadherent culture at 37° C. in a standard CO2 cell culture incubator. INS-TMEM27 cells are seeded in 96-well plates. After 2 days in culture, BACE2 inhibitor is added in a range of concentrations as required by the assay and after a further two hours, doxycycline is added to a final concentration of 500 ng/ml. The cells are incubated for a further 46 hours and the supernatant harvested for detection of shed TMEM27.
An ELISA assay (using a pair of mouse anti-human-TMEM27 antibodies, raised against the extracellular domain of TMEM27) is used for detection of TMEM27 in the culture medium. An EC50 for BACE2 inhibition is calculated using the ELISA readout for each inhibitor concentration with standard curve-fitting software such as XLFit for the Excel spreadsheet program.

For ten molecules, IC50 results are on record in patent US8389513B2, “2-amino-5,5-difluoro-5,6-dihydro-4H-[1,3]oxazin-4-yl)-phenyl]-amides” (Hoffmann-La Roche Inc., priority 2009, dated 2013).

T1 sequence (P56817 46-501): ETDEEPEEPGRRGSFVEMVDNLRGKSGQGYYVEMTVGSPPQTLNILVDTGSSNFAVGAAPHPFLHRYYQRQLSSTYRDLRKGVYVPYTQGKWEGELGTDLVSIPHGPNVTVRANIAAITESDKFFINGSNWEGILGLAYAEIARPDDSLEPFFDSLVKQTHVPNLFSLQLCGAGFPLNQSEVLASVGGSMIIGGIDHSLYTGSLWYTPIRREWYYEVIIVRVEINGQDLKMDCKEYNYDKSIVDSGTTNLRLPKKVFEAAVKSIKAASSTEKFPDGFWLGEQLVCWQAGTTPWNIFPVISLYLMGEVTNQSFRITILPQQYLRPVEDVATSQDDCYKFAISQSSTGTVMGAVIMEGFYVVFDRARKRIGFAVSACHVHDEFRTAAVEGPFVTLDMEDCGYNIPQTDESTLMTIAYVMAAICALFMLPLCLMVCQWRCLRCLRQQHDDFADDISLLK

The term IC50 denotes the concentration that gives 50% inhibition. On to `C[C@]1(c2cc(NC(=O)c3ncc(F)cc3F)ccc2F)N=C(N)OCC1(F)F` [Example 4, 3,5-Difluoro-pyridine-2-carboxylic acid [3-((R)-2-amino-5,5-difluoro-4-methyl-5,6-dihydro-4H-[1,3]oxazin-4-yl)-4-fluoro-phenyl]-amide], for which the IC50 on BACE1 was 31 nM; on BACE2, 26 nM.
Regarding `C[C@]1(c2cc(NC(=O)c3ccc(OC(F)F)cn3)ccc2F)N=C(N)OCC1(F)F` [Example 41, 5-Difluoromethoxy-pyridine-2-carboxylic acid [3-((R)-2-amino-5,5-difluoro-4-methyl-5,6-dihydro-4H-[1,3]oxazin-4-yl)-4-fluoro-phenyl]-amide], the IC50 at BACE1 came to 11 nM; on BACE2, 855 nM.
Regarding `CC1(C)OC(N)=N[C@](C)(c2cc(NC(=O)c3ccc(OCF)cn3)ccc2F)C1(F)F` [Example 26, 5-Fluoromethoxy-pyridine-2-carboxylic acid [3-((R)-2-amino-5,5-difluoro-4,6,6-trimethyl-5,6-dihydro-4H-[1,3]oxazin-4-yl)-4-fluoro-phenyl]-amide], the figures for the IC50 on BACE1 and on BACE2 were 30 nM and 761 nM, respectively.
In the case of `C[C@]1(c2cc(NC(=O)C3(C(F)(F)F)CC3)ccc2F)N=C(N)OCC1(F)F` [Example 75, 1-Trifluoromethyl-cyclopropanecarboxylic acid [3-((R)-2-amino-5,5-difluoro-4-methyl-5,6-dihydro-4H-[1,3]oxazin-4-yl)-4-fluoro-phenyl]-amide], the figures for the IC50 on BACE1 and on BACE2 were 1490 nM and 1010 nM, respectively.
Take `C[C@]1(c2cc(NC(=O)c3ccc(OCC(F)(F)F)cn3)ccc2F)N=C(N)OCC1(F)F` [Example 14, 5-(2,2,2-Trifluoro-ethoxy)-pyridine-2-carboxylic acid [3-((R)-2-amino-5,5-difluoro-4-methyl-5,6-dihydro-4H-[1,3]oxazin-4-yl)-4-fluoro-phenyl]-amide]: the results for the half-maximal inhibitory concentration (IC50) at BACE1 and at BACE2 were 290 nM and 19200 nM, respectively.
Take `C[C@]1(c2cc(NC(=O)c3nn(CC(F)F)cc3Cl)ccc2F)N=C(N)OCC1(F)F` [Example 68, 4-Chloro-1-(2,2-difluoro-ethyl)-1H-pyrazole-3-carboxylic acid [3-((R)-2-amino-5,5-difluoro-4-methyl-5,6-dihydro-4H-[1,3]oxazin-4-yl)-4-fluoro-phenyl]-amide]: the IC50 at BACE1 is 927 nM; at BACE2, 230 nM.
For the molecule `C[C@@](O)(C(=O)Nc1ccc(F)c([C@@]2(C)N=C(N)OCC2(F)F)c1)C(F)(F)F` [Example 76, (R)—N-[3-((R)-2-Amino-5,5-difluoro-4-methyl-5,6-dihydro-4H-[1,3]oxazin-4-yl)-4-fluoro-phenyl]-3,3,3-trifluoro-2-hydroxy-2-methyl-propionamide 2,2,2-trifluoroacetate], the IC50 at BACE1 is 1050 nM; on BACE2 it was 1420 nM.
As to `C[C@]1(c2cc(NC(=O)c3ccc(Cl)cn3)ccc2Cl)N=C(N)OCC1(F)F` [Example 50, 5-Chloro-pyridine-2-carboxylic acid [3-((R)-2-amino-5,5-difluoro-4-methyl-5,6-dihydro-4H-[1,3]oxazin-4-yl)-4-chloro-phenyl]-amide], the IC50 on BACE1 turned out to be 17 nM; on BACE2, 24 nM.
Regarding `C[C@]1(c2cc(NC(=O)C3CC3(F)F)ccc2F)N=C(N)OCC1(F)F` (mixture of isomers) [Example 74, (RS)-2,2-Difluoro-cyclopropanecarboxylic acid [3-((R)-2-amino-5,5-difluoro-4-methyl-5,6-dihydro-4H-[1,3]oxazin-4-yl)-4-fluoro-phenyl]-amide], the values for the IC50 on BACE1 and at BACE2 were 510 nM and 590 nM, respectively.
In the case of `C[C@]1(c2cc(NC(=O)c3[nH]ncc3Cl)ccc2F)N=C(N)OCC1(F)F` [Example 65, 4-Chloro-2H-pyrazole-3-carboxylic acid [3-((R)-2-amino-5,5-difluoro-4-methyl-5,6-dihydro-4H-[1,3]oxazin-4-yl)-4-fluoro-phenyl]-amide], the IC50 on BACE1 was 404 nM; on BACE2 it was 543 nM.
